Measurements: paper PMC7265341, “Quantifying CDK inhibitor selectivity in live cells” (Nature Communications, 2020)
Read-outs that look alike come from different tables or passages of the source.

Key:
[1] = biological target: CDK7 (Homo sapiens, UniProt P50613); assay: NanoBRET live-cell target engagement, NanoLuc-CDK7 in HEK-293; type: binding; settings: 10µM
[2] = biological target: CDK16/Cyclin Y (Homo sapiens, UniProt Q00536); assay: NanoBRET live-cell target engagement, CDK16-NanoLuc/Cyclin Y in HEK-293; type: binding; settings: 10µM
[3] = biological target: CDK9/Cyclin K (Homo sapiens, UniProt P50750); assay: NanoBRET live-cell target engagement, NanoLuc-CDK9/Cyclin K in HEK-293; type: binding; settings: 10µM
CDK9/Cyclin K, sequence (P50750 whole entry): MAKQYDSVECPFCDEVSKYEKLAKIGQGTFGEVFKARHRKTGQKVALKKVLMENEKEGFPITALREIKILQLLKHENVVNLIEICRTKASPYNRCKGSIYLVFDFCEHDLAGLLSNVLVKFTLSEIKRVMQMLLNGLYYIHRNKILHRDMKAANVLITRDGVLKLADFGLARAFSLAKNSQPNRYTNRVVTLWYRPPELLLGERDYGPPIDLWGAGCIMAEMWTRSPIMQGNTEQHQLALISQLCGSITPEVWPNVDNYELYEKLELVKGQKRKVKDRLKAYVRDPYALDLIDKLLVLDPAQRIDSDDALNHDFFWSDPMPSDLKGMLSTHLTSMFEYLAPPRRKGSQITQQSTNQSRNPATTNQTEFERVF
CDK9/Cyclin K, sequence (O75909 whole entry partner): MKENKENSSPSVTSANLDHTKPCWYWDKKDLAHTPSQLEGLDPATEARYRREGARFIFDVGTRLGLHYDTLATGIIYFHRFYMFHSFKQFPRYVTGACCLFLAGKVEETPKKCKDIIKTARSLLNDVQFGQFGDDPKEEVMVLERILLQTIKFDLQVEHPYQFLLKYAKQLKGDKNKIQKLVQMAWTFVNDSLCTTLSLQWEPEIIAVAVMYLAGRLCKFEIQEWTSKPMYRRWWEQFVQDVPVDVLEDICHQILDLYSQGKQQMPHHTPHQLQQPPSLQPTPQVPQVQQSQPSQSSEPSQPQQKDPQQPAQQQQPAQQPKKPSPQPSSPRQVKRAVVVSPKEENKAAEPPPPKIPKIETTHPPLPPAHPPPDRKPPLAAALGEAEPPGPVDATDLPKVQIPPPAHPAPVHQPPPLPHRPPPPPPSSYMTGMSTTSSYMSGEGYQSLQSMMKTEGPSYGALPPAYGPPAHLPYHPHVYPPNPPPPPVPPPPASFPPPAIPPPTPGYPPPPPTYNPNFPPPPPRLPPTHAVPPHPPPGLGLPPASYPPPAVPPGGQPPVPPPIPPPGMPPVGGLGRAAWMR

[4] = biological target: CDK17/Cyclin Y (Homo sapiens, UniProt Q00537); assay: NanoBRET live-cell target engagement, CDK17-NanoLuc/Cyclin Y in HEK-293; type: binding; settings: 10µM
[5] = biological target: CDK6/Cyclin D1 (Homo sapiens, UniProt Q00534); assay: NanoBRET live-cell target engagement, NanoLuc-CDK6/Cyclin D1 in HEK-293; type: binding; settings: 10µM
[6] = biological target: CDK14/Cyclin Y (Homo sapiens, UniProt O94921); assay: NanoBRET live-cell target engagement, CDK14-NanoLuc/Cyclin Y in HEK-293; type: binding; settings: 10µM
CDK14/Cyclin Y, sequence (O94921 whole entry): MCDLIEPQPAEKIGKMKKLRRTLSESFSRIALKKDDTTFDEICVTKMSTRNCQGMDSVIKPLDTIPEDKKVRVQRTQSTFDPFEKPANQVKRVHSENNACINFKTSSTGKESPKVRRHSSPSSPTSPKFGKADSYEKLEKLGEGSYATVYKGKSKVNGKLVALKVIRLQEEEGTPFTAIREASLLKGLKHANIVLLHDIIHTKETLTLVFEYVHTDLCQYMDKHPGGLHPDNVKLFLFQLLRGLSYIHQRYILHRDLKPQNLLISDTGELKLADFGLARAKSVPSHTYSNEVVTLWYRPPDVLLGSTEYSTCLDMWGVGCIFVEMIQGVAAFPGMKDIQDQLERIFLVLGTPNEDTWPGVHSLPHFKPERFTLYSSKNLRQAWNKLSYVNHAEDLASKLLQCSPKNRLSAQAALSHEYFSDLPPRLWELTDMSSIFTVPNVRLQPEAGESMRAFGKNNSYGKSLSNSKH
CDK14/Cyclin Y, sequence (Q8ND76 whole entry partner): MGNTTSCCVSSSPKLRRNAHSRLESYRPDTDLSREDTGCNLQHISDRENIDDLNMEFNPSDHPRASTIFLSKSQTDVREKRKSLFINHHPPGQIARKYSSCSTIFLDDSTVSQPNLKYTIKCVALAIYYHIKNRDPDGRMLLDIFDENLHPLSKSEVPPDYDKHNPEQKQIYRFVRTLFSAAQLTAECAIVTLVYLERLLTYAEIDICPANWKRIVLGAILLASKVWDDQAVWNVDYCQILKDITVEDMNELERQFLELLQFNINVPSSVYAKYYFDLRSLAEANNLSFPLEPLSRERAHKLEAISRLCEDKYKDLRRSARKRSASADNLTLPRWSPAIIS

[7] = biological target: CDK2/Cyclin E1 (Homo sapiens, UniProt P24941); assay: NanoBRET live-cell target engagement, CDK2-NanoLuc/Cyclin E1 in HEK-293; type: binding; settings: 10µM
[8] = biological target: CDK15/Cyclin Y (Homo sapiens, UniProt Q96Q40); assay: NanoBRET live-cell target engagement, NanoLuc-CDK15/Cyclin Y in HEK-293; type: binding; settings: 10µM
CDK15/Cyclin Y, sequence (Q96Q40 whole entry): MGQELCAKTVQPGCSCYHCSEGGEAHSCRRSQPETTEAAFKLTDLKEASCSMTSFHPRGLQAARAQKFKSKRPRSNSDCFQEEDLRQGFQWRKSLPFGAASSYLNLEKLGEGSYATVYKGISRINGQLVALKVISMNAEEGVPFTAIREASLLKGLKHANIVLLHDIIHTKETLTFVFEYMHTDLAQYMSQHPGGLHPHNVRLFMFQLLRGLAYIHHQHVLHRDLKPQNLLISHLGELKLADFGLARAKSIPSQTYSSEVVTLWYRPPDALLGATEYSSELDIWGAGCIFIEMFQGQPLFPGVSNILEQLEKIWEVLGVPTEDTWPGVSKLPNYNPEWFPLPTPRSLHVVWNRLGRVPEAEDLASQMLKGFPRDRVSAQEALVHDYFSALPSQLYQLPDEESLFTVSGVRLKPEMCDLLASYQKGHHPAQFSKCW
CDK15/Cyclin Y, sequence (Q8ND76 whole entry partner): as the sequence (Q8ND76 whole entry partner) above

[9] = biological target: CDK5/CDK5R1 (Homo sapiens, UniProt Q00535); assay: NanoBRET live-cell target engagement, CDK5-NanoLuc/CDK5R1 in HEK-293; type: binding; settings: 10µM
[10] = biological target: CDK11B/Cyclin L2 (Homo sapiens, UniProt P21127); assay: NanoBRET live-cell target engagement, CDK11B-NanoLuc/Cyclin L2 in HEK-293; type: binding; settings: 10µM
[11] = biological target: CDK10/Cyclin L2 (Homo sapiens, UniProt Q15131); assay: NanoBRET live-cell target engagement, CDK10-NanoLuc/Cyclin L2 in HEK-293; settings: for IC50: read-out: CDK10/L2 IC50
[12] = biological target: CDK18/Cyclin Y (Homo sapiens, UniProt Q07002); assay: NanoBRET live-cell target engagement, CDK18-NanoLuc/Cyclin Y in HEK-293; type: binding; settings: 10µM
CDK18/Cyclin Y, sequence (Q07002 whole entry): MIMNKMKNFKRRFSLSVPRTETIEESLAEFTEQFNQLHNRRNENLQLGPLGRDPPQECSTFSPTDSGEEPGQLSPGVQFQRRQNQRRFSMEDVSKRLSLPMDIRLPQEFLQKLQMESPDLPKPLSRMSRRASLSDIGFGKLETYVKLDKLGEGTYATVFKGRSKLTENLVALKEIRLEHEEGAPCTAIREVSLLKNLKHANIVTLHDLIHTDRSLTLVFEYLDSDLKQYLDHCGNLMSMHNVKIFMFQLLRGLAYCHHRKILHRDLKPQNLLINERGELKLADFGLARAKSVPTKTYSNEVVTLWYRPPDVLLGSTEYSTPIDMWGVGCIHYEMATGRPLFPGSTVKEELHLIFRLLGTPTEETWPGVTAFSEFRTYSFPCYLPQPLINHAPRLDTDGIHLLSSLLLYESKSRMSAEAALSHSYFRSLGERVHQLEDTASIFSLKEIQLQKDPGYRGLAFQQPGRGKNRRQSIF
CDK18/Cyclin Y, sequence (Q8ND76 whole entry partner): as the sequence (Q8ND76 whole entry partner) above

[13] = biological target: CDK20/Cyclin H (Homo sapiens, UniProt Q8IZL9); assay: NanoBRET live-cell target engagement, NanoLuc-CDK20/Cyclin H in HEK-293; type: binding; settings: 10µM
[14] = biological target: CDK3/Cyclin E1 (Homo sapiens, UniProt Q00526); assay: NanoBRET live-cell target engagement, CDK3-NanoLuc/Cyclin E1 in HEK-293; type: binding; settings: 10µM
[15] = biological target: CDK13/Cyclin K (Homo sapiens, UniProt Q14004); assay: NanoBRET live-cell target engagement, CDK13-NanoLuc/Cyclin K in HEK-293; type: binding
CDK13/Cyclin K, sequence (O75909 whole entry): as the sequence (O75909 whole entry partner) above
CDK13/Cyclin K, sequence (Q14004 other isoform, or with tags, fused parts or gaps): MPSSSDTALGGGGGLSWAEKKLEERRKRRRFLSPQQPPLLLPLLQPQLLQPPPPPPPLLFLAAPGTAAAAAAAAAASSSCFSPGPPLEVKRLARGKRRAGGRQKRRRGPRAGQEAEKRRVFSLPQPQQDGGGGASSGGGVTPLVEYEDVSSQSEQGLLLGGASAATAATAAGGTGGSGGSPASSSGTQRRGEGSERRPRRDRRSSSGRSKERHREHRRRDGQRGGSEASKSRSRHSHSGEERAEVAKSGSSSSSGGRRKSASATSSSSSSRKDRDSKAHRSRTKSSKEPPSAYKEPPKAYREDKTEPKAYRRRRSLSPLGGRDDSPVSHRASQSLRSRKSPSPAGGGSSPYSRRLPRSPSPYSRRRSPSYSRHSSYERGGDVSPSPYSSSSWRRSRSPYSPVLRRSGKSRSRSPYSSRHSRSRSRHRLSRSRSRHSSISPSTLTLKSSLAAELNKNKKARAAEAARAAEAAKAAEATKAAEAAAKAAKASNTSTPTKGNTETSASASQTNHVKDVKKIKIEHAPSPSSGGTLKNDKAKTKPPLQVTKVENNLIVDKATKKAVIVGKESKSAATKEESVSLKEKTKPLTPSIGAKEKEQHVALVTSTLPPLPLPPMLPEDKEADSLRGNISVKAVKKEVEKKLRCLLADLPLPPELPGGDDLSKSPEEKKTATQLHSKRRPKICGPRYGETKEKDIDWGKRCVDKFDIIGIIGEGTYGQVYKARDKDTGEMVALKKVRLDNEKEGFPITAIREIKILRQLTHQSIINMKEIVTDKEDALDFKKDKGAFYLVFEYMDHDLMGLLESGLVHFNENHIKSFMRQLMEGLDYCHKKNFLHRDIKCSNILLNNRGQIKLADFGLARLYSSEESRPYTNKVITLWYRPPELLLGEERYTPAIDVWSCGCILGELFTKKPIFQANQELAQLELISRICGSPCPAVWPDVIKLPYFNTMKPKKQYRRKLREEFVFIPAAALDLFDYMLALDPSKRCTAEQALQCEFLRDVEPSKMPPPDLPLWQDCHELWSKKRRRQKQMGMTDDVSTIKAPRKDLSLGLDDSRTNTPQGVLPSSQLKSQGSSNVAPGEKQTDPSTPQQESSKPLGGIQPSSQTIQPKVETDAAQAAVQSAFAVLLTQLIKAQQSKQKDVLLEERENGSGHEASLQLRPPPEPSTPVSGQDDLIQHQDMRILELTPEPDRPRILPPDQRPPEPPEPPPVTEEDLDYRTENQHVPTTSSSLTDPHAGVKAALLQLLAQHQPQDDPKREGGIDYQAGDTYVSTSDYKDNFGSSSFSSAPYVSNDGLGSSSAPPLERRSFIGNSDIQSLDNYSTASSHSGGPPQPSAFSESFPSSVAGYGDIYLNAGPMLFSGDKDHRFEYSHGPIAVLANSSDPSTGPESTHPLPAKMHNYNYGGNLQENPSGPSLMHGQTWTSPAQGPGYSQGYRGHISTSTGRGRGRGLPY

[16] = biological target: CDK4/Cyclin D1 (Homo sapiens, UniProt P11802); assay: NanoBRET live-cell target engagement, NanoLuc-CDK4/Cyclin D1 in HEK-293; type: binding; settings: 10µM
CDK4/Cyclin D1, sequence (P11802 whole entry): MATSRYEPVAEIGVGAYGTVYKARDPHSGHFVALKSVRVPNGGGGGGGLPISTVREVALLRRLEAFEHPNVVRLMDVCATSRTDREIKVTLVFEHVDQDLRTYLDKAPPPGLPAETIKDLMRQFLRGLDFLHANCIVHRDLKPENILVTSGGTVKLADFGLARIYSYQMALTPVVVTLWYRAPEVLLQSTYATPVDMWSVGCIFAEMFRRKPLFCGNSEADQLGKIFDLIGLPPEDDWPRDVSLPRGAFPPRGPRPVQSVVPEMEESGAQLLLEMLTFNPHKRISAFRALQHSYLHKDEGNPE
CDK4/Cyclin D1, sequence (P24385 whole entry partner): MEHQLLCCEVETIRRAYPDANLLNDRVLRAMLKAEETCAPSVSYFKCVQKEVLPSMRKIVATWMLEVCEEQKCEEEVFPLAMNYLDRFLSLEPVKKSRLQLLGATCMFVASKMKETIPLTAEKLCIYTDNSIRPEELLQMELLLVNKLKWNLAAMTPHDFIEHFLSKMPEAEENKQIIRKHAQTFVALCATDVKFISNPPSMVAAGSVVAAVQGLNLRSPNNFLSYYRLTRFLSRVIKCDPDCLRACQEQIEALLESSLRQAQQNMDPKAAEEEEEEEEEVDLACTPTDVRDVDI

[17] = biological target: CDK19/Cyclin C (Homo sapiens, UniProt Q9BWU1); assay: NanoBRET live-cell target engagement, NanoLuc-CDK19/Cyclin C in HEK-293; settings: 10µM
[18] = biological target: CDK1/Cyclin E1 (Homo sapiens, UniProt P06493); assay: NanoBRET live-cell target engagement, CDK1-NanoLuc/Cyclin E1 in HEK-293; type: binding; settings: 10µM
[19] = biological target: CDK12/Cyclin K (Homo sapiens, UniProt Q9NYV4); assay: NanoBRET live-cell target engagement, CDK12-NanoLuc/Cyclin K in HEK-293; type: binding
[20] = biological target: CDK8/Cyclin C (Homo sapiens, UniProt P49336); assay: NanoBRET live-cell target engagement, NanoLuc-CDK8/Cyclin C in HEK-293; type: binding; settings: 10µM

In the case of `CN(C)C/C=C/C(=O)Nc1ccc(C(=O)Nc2cccc(Nc3ncc(Cl)c(-c4c[nH]c5ccccc45)n3)c2)cc1` [THZ1], the “CDK7 Inhibition at 10µM (%)” value ([1]; average of experiments) is reported as 83.9%, the “CDK7 Inhibition at 10µM (%)” value ([1]; independent experiment 1) is reported as 70.6% and the “CDK7 Inhibition at 10µM (%)” value ([1]; independent experiment 2) is reported as 97.1%. The “CDK16/Y Inhibition at 10µM (%)” value ([2]; independent experiment 1) was 74.4%, the “CDK16/Y Inhibition at 10µM (%)” value ([2]; independent experiment 2) was 11.2% and the “CDK9/K Inhibition at 10µM (%)” value ([3]; average of experiments) was 70.0%. For the same compound, the “CDK9/K Inhibition at 10µM (%)” value ([3]; independent experiment 1) was 44.1%, the “CDK9/K Inhibition at 10µM (%)” value ([3]; independent experiment 2) was 96.0% and the “CDK17/Y Inhibition at 10µM (%)” value ([4]; average of experiments) was 50.4%. The “CDK17/Y Inhibition at 10µM (%)” value ([4]; independent experiment 1) was 73.0%, the “CDK17/Y Inhibition at 10µM (%)” value ([4]; independent experiment 2) was 27.8% and the “CDK6/D1 Inhibition at 10µM (%)” value ([5]; average of experiments) was 73.8%. For the same compound, the “CDK6/D1 Inhibition at 10µM (%)” value ([5]; independent experiment 1) was 53.8%, the “CDK6/D1 Inhibition at 10µM (%)” value ([5]; independent experiment 2) was 93.8% and the “CDK14/Y Inhibition at 10µM (%)” value ([6]; average of experiments) was 33.1%. For the same compound, the “CDK14/Y Inhibition at 10µM (%)” value ([6]; independent experiment 1) was 6.6%, the “CDK14/Y Inhibition at 10µM (%)” value ([6]; independent experiment 2) was 59.6% and the “CDK2/E1 Inhibition at 10µM (%)” value ([7]; average of experiments) was 16.1%. For the same compound, the “CDK2/E1 Inhibition at 10µM (%)” value ([7]; independent experiment 1) was 27.6%, the “CDK2/E1 Inhibition at 10µM (%)” value ([7]; independent experiment 2) was 4.6% and the “CDK15/Y Inhibition at 10µM (%)” value ([8]; average of experiments) was 64.9%. For the same compound, the “CDK15/Y Inhibition at 10µM (%)” value ([8]; independent experiment 1) was 40.7%, the “CDK15/Y Inhibition at 10µM (%)” value ([8]; independent experiment 2) was 89.2% and the “CDK5/CDK5R1 Inhibition at 10µM (%)” value ([9]; average of experiments) was 42.5%. For the same compound, the “CDK5/CDK5R1 Inhibition at 10µM (%)” value ([9]; independent experiment 1) was 19.2%, the “CDK5/CDK5R1 Inhibition at 10µM (%)” value ([9]; independent experiment 2) was 65.8% and the “CDK11b/L2 Inhibition at 10µM (%)” value ([10]; average of experiments) was 34.5%. The “CDK11b/L2 Inhibition at 10µM (%)” value ([10]; independent experiment 1) was 13.3%, the “CDK11b/L2 Inhibition at 10µM (%)” value ([10]; independent experiment 2) was 55.7% and the “CDK10/L2 Inhibition at 10µM (%)” value ([11]; average of experiments) was 48.0%. For the same compound, the “CDK10/L2 Inhibition at 10µM (%)” value ([11]; independent experiment 1) was 11.4%, the “CDK10/L2 Inhibition at 10µM (%)” value ([11]; independent experiment 2) was 84.6% and the IC50 ([11]; average (± SEM where n=3)) was 1 ± 0.3 µM. The IC50 ([11]; independent experiment 1) was 0.66 µM, the IC50 ([11]; independent experiment 2) was 0.79 µM and the IC50 ([11]; independent experiment 3) was 1.5 µM. The “CDK18/Y Inhibition at 10µM (%)” value ([12]; average of experiments) was 48.6%, the “CDK18/Y Inhibition at 10µM (%)” value ([12]; independent experiment 1) was 73.0% and the “CDK18/Y Inhibition at 10µM (%)” value ([12]; independent experiment 2) was 24.3%. For the same compound, the “CDK20/H Inhibition at 10µM (%)” value ([13]; independent experiment 1) was 63.8%, the “CDK20/H Inhibition at 10µM (%)” value ([13]; independent experiment 2) was 90.1% and the “CDK3/E1 Inhibition at 10µM (%)” value ([14]; average of experiments) was 55.0%. For the same compound, the “CDK3/E1 Inhibition at 10µM (%)” value ([14]; independent experiment 1) was 14.7%, the “CDK3/E1 Inhibition at 10µM (%)” value ([14]; independent experiment 2) was 95.2% and the “CDK13/K Inhibition at 10µM (%)” value ([15]; average of experiments) was 48.1%. For the same compound, the “CDK13/K Inhibition at 10µM (%)” value ([15]; independent experiment 1) was 34.3%, the “CDK13/K Inhibition at 10µM (%)” value ([15]; independent experiment 2) was 62.0% and the “CDK13 occupancy at 10 µM” value ([15]; primary screen, live HEK-293) was ~50%. For the same compound, the “CDK4/D1 Inhibition at 10µM (%)” value ([16]; average of experiments) was 53.8%, the “CDK4/D1 Inhibition at 10µM (%)” value ([16]; independent experiment 1) was 13.3% and the “CDK4/D1 Inhibition at 10µM (%)” value ([16]; independent experiment 2) was 94.2%. The “CDK19/C Inhibition at 10µM (%)” value ([17]; average of experiments) was 66.6%, the “CDK19/C Inhibition at 10µM (%)” value ([17]; independent experiment 1) was 44.1% and the “CDK19/C Inhibition at 10µM (%)” value ([17]; independent experiment 2) was 89.1%. For the same compound, the “CDK1/E1 Inhibition at 10µM (%)” value ([18]; average of experiments) was 91.9%, the “CDK1/E1 Inhibition at 10µM (%)” value ([18]; independent experiment 1) was 87.2% and the “CDK1/E1 Inhibition at 10µM (%)” value ([18]; independent experiment 2) was 96.6%. For the same compound, the “CDK12/K Inhibition at 10µM (%)” value ([19]; average of experiments) was 45.5%, the “CDK12/K Inhibition at 10µM (%)” value ([19]; independent experiment 1) was 26.4% and the “CDK12/K Inhibition at 10µM (%)” value ([19]; independent experiment 2) was 64.6%. For the same compound, the “CDK12 occupancy at 10 µM” value ([19]; primary screen, live HEK-293) was ~50%, the “CDK8/C Inhibition at 10µM (%)” value ([20]; average of experiments) was 62.9% and the “CDK8/C Inhibition at 10µM (%)” value ([20]; independent experiment 1) was 34.6%. The “CDK8/C Inhibition at 10µM (%)” value ([20]; independent experiment 2) was 91.2%.
